Earlier results in patent US20250049743A1, “METHOD OF PRODUCING AN ORAL OSMOTIC PHARMACEUTICAL DELIVERY SYSTEM AND A PHARMACEUTICAL BATCH PRODUCED USING THE SAME” (United Therapeutics Corporation, priority 2023, published 2025).

Details: treprostinil as the free acid

In the case of `CCCCC[C@H](O)CC[C@@H]1[C@H]2Cc3cccc(OCC(=O)O)c3C[C@H]2C[C@H]1O` [treprostinil], the absolute oral bioavailability is listed as “less than 10%”.
